According to patent publication US5807860A, “Urea derivatives” (Mitsubishi Chemical Corporation, priority 1995, dated 1998):
Counter-ions that a name gives are not always drawn.

Key:
[1] = target: T1, ACAT of HepG2 cells (Homo sapiens, UniProt P35610); assay: Inhibitory activity against ACAT of HepG2 cells derived from human liver cancer cells; format: cell-based; conditions: radio-labelled oleic acid/BSA complex, cholesterol oleate produced
T1 construct: endogenous in cells; host or cells: HepG2
T1 sequence (P35610 1-550): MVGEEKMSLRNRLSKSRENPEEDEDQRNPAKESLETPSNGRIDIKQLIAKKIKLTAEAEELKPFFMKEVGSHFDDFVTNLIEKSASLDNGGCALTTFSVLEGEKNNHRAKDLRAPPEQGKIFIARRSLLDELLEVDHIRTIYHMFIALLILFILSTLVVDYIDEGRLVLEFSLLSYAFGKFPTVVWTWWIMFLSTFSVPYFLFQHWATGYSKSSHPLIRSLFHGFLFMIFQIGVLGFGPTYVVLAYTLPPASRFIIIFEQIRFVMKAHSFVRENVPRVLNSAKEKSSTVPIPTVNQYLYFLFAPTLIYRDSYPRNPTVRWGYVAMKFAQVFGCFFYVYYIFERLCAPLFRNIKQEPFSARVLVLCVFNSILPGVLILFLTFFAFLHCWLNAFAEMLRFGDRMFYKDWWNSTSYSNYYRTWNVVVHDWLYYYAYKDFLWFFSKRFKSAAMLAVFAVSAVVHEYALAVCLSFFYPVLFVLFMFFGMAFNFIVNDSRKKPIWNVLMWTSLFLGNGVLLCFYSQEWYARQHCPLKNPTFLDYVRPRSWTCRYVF
Experimental: Inhibitory Activity against ACAT of HepG2 cells Derived from Human Liver Cancer Cells Inhibitory activities of the compounds of the present invention against ACAT were measured by the method described below. HepG2 cells derived from human liver cancer cells were used for the measurement of the ACAT activity. A complex of radio-labelled oleic acid and bovine serum albumin was added to a culture of the cells, and the activity was measured by observing the amount of radio-labelled cholesterol oleate produced from the radio-labelled oleic acid in the cells.

[2] = target: T2, ACAT in foamed macrophages (Mus musculus, UniProt Q61263); assay: Inhibitory activity against ACAT derived from foamed macrophages; format: cell-based, mouse (ddY female mice); conditions: foamed macrophages from ddY female mice; acetylated LDL, 24 hours; cholesterol oleate produced; read-out: Inhibitory activity against ACAT, Macrophage (IC50)
T2 construct: endogenous in cells; host or cells: peritoneal macrophages of ddY female mice, foamed with acetylated LDL
T2 sequence (Q61263 1-540): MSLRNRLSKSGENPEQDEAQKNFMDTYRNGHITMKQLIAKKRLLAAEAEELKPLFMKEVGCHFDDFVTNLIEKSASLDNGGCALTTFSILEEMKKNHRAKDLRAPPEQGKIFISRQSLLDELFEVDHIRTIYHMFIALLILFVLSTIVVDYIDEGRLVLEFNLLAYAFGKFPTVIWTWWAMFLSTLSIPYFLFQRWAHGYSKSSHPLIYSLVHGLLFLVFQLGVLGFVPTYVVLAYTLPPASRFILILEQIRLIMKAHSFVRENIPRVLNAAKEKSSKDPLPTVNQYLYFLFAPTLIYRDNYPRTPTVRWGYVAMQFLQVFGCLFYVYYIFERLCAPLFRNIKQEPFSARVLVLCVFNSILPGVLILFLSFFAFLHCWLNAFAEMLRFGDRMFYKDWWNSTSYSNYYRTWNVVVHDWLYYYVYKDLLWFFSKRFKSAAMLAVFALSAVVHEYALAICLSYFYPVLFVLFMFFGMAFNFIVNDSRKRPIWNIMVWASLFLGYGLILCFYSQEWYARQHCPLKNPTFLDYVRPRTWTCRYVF
Experimental: Inhibitory Activity against ACAT Derived from Foamed Macrophages
Inhibitory activity of the compounds of the present invention against ACAT in foamed macrophages was measured by the methods set out below. Acetylated low density lipoprotein was added to macrophages taken from abdominal cavities of ddY female mice and the cells were incubated for 24 hours to obtain foaming macrophages. These cells accumulated a large amount of cholesterol (ester) inside the cells, and are used as a model of arteriosclerosis lesion. ACAT activity of the cells was determined by adding a complex of radio-labelled oleic acid and bovine serum albumin to the cell culture, and observing the amount of radio-labelled cholesterol oleate that was produced from the radio-labelled oleic acid in the cells. The inhibitory activities of the compounds of the present invention against ACAT were measured as follows: percent reduction rates of enzymatic activity by the addition of given concentrations of test compounds was observed on the basis of the amount of the produced cholesterol oleate in the control group without the addition of a test compound, and by using the results, IC50, i.e., concentrations of tested compounds required to inhibit 50% of the enzyme activity, was calculated.

[3] = test system: high cholesterol fed WISTAR male rats (total cholesterol in the serum); assay: Cholesterol reduction activity in high cholesterol fed rats; format: in vivo, rat (WISTAR); conditions: Rattus norvegicus, once a day for 5 days, 3.5 hours after final administration, probit analysis
Experimental: Cholesterol Reduction Activity in High Cholesterol Fed Rats
6-Week old WISTAR male rats were fed with high cholesterol solid feedstuff (Oriental Kobo Co., Ltd., 1% cholesterol, 0.5% cholic acid). Each group consisted of seven rats was compulsorily administered with 0.2% aqueous solution of a test compound (compound of Example 3) once a day at a dose of 1 mg/kg, 3 mg/kg, 10 mg/kg, or 30 mg/kg for 5 days. One group consisted of seven rats was fed with the same high cholesterol feedstuff and used as a control group. After 3.5 hours from the final administration, blood was collected from the abdominal aorta and the total cholesterol in the serum was measured. The reduction rate of total cholesterol was represented as a ratio between a control group not administered with the drug (seven rats) and examined by the probit analysis.

[4] = Moisture absorption under ambient atmosphere (Karl Fisher method); format: physicochemical; conditions: kept under ambient atmosphere for 2 days
Text: Among these compounds, compounds having higher hygroscopic properties may absorb moisture when kept under ambient atmosphere to form substances represented by the following formula: [drawing 15] wherein R1, R2, R3, R4, R5, R6, k, l, and Y are the same as those defined above; symbol "a" represents 0 or an arbitrary integer or represents an arbitrary fraction; and symbol "b" represents an arbitrary integer or an arbitrary fraction. For example, 3.3% weight increase was observed by Karl Fisher method after N-{5-(1-imidazolyl)-2-methoxyphenyl}methyl-N-(1-pentyl)-N'-[2-{3-(4-phenyl-1-piperazinyl)propoxy}-6-methylphenyl]urea dihydrochloride obtained in Example 3 was kept under ambient atmosphere for 2 days.

IC50 [1] [nM]	IC50 [2] [nM]	weight increase (moisture absorption) [4] [%]	Compound	ED10 ([3]; 10% reduction of serum total cholesterol vs control, read-out: Dose of test compound for total cholesterol reduction rate 10%) [mg/kg]	ED20 ([3]; 20% reduction of serum total cholesterol vs control, read-out: Dose of test compound for total cholesterol reduction rate 20%) [mg/kg]	ED25 ([3]; 25% reduction of serum total cholesterol vs control, read-out: Dose of test compound for total cholesterol reduction rate 25%) [mg/kg]	ED30 ([3]; 30% reduction of serum total cholesterol vs control, read-out: Dose of test compound for total cholesterol reduction rate 30%) [mg/kg]	ED50 ([3]; 50% reduction of serum total cholesterol vs control, read-out: Dose of test compound for total cholesterol reduction rate 50%) [mg/kg]
101	131		CCCCCN(Cc1cc(-n2ccnc2)ccc1OC)C(=O)Nc1c(C)cccc1OCCCN1CCN(c2ccccc2)CC1 [Example 2, N-{5-(1-imidazolyl)-2-methoxyphenyl}methyl-N-(1-pentyl)-N'-[2-{3-(4-phenyl-1-piperazinyl)propoxy}-6-methyphenyl]urea trihydrochloride]					
108		3.3	CCCCCN(Cc1cc(-n2ccnc2)ccc1OC)C(=O)Nc1c(C)cccc1OCCCN1CCN(c2ccccc2)CC1.Cl.Cl [Example 3, N-{5-(1-imidazolyl)-2-methoxyphenyl}methyl-N-(1-pentyl)-N'-[2-{3-(4-phenyl-1-piperazinyl)propoxy}-6-methylphenyl]urea dihydrochloride]	1.9	3.6	4.6	5.7	12.1
89	119		CCCCCN(Cc1ccc(OCc2ccccn2)cc1)C(=O)Nc1c(C)cccc1OCCCN1CCN(c2ccccc2)CC1 [Example 34]					
164	440		CCCCCN(Cc1cc(-n2ccnc2)ccc1OC)C(=O)Nc1c(C)cccc1OCCN1CCN(c2ccccc2)CC1 [Example 18]					
584	1050		CCCCCN(Cc1ccc(OC)c(-n2ccnc2)c1)C(=O)Nc1c(C)cccc1OCCCN1CCN(c2ccccc2)CC1 [Example 58]					
